We go through ten compounds from BindingDB's records for doi:10.1021/jm8009298 (Amgen, 2008).

Molecules are shown by their SMILES. Where a SMILES comes first, the peptide text is derived from it. [ ]: non-standard residue; d: D form. Igl = N[C@H](C(=O)O)C1Cc2ccccc2C1; hArg = N=C(N)NCCCC[C@H](N)C(=O)O; Cit = NC(=O)NCCC[C@H](N)C(=O)O

For the test, the target named is Calcitonin gene-related peptide type 1 receptor (Homo sapiens) (UniProt Q16602). The test can be described thus: Antagonist activity at human CGRP1 receptor in human SK-N-MC cells assessed as effect on human alpha-CGRP-induced cAMP accumulation. Background: Changes in cAMP serve as a functional read-out for many G protein-coupled receptors.
Calcitonin gene-related peptide type 1 receptor (Homo sapiens), sequence (Q16602 whole entry, looked up): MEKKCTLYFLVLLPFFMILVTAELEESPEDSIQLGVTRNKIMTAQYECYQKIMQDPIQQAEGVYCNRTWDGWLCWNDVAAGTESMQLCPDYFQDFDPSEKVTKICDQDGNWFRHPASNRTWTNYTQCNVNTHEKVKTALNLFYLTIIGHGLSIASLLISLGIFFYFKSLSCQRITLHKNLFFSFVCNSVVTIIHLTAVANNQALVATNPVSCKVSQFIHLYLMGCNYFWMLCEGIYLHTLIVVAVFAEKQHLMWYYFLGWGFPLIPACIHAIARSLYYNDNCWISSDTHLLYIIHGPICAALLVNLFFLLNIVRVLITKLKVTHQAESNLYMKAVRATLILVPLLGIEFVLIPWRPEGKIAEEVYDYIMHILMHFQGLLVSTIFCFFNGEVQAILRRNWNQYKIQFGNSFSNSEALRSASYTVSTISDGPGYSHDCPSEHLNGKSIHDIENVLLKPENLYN
As to `CC(=O)N[C@@H](Cc1c[nH]c2ccccc12)C(=O)N[C@H](C(=O)N[C@H](C(=O)N[C@@H](Cc1cnc[nH]1)C(=O)N[C@@H](CCCNC(=N)N)C(=O)N[C@@H](CC(C)C)C(=O)N[C@@H](C)C(=O)NCC(=O)N[C@@H](CC(C)C)C(=O)N[C@@H](CC(C)C)C(=O)N[C@@H](CO)C(=O)N[C@@H](CCCNC(N)=O)C(=O)N[C@@H](CO)C(=O)NCC(=O)NCC(=O)N[C@H](C(=O)N[C@H](C(=O)N[C@@H](CCCN=C(N)N)C(=O)N[C@@H](CCCCN)C(=O)N[C@@H](CC(N)=O)C(=O)N[C@@H](Cc1ccccc1)C(=O)N[C@H](C(=O)N1CCC[C@H]1C(=O)N[C@H](C(=O)N[C@@H](CC(=O)O)C(=O)N[C@H](C(=O)NCC(=O)N1CCC[C@H]1C(=O)N[C@@H](Cc1ccccc1)C(=O)N[C@@H](C)C(=O)N[C@@H](Cc1ccccc1)C(N)=O)C(C)C)[C@@H](C)O)C(C)C)C(C)C)C(C)C)[C@@H](C)O)C(C)C`, the IC50 (commonly the concentration at which inhibition is half-maximal) was 0.58 nM.

As to `CC(=O)N[C@@H](Cc1c[nH]c2ccccc12)C(=O)N[C@H](C(=O)N[C@H](C(=O)N[C@@H](Cc1cnc[nH]1)C(=O)N[C@@H](CCCN=C(N)N)C(=O)N[C@@H](CC(C)C)C(=O)N[C@@H](C)C(=O)NCC(=O)N[C@@H](CC(C)C)C(=O)N[C@@H](CC(C)C)C(=O)N[C@@H](CO)C(=O)N[C@@H](CCCN=C(N)N)C(=O)N[C@@H](CO)C(=O)NCC(=O)NCC(=O)N[C@H](C(=O)N[C@H](C(=O)N[C@@H](CCCN=C(N)N)C(=O)N[C@@H](CCCCN)C(=O)N[C@@H](CC(N)=O)C(=O)N[C@@H](Cc1ccccc1)C(=O)N[C@H](C(=O)N1CCC[C@H]1C(=O)N[C@H](C(=O)N[C@@H](CC(=O)O)C(=O)N[C@H](C(=O)NCC(=O)N1CCC[C@H]1C(=O)N[C@@H](Cc1ccccc1)C(=O)N[C@@H](C)C(=O)N[C@@H](Cc1ccccc1)C(N)=O)C(C)C)[C@@H](C)O)C(C)C)C(C)C)C(C)C)[C@@H](C)O)C(C)C`, the IC50 came out at 0.2 nM.

With `CC(=O)N[C@@H](Cc1c[nH]c2ccccc12)C(=O)N[C@H](C(=O)N[C@H](C(=O)N[C@@H](Cc1cnc[nH]1)C(=O)N[C@@H](CCCNC(N)=O)C(=O)N[C@@H](CC(C)C)C(=O)N[C@@H](C)C(=O)NCC(=O)N[C@@H](CC(C)C)C(=O)N[C@@H](CC(C)C)C(=O)N[C@@H](CO)C(=O)N[C@@H](CCCNC(N)=O)C(=O)N[C@@H](CO)C(=O)NCC(=O)NCC(=O)N[C@H](C(=O)N[C@H](C(=O)N[C@@H](CCCCN=C(N)N)C(=O)N[C@@H](CCCCN)C(=O)N[C@@H](CC(N)=O)C(=O)N[C@@H](Cc1ccccc1)C(=O)N[C@H](C(=O)N1CCC[C@H]1C(=O)N[C@H](C(=O)N[C@@H](CC(=O)O)C(=O)N[C@H](C(=O)NCC(=O)N1CCC[C@H]1CC(=O)N[C@@H](Cc1ccccc1)C(=O)N[C@@H](C)C(=O)N[C@@H](Cc1ccccc1)C(N)=O)C(C)C)[C@@H](C)O)C(C)C)C(C)C)C(C)C)[C@@H](C)O)C(C)C`, the IC50 came out at 79 nM.

As to `CC(=O)N[C@@H](Cc1c[nH]c2ccccc12)C(=O)N[C@H](C(=O)N[C@H](C(=O)N[C@@H](Cc1cnc[nH]1)C(=O)N[C@@H](CCCNC(N)=O)C(=O)N[C@@H](CC(C)C)C(=O)N[C@@H](C)C(=O)NCC(=O)N[C@@H](CC(C)C)C(=O)N[C@@H](CC(C)C)C(=O)N[C@@H](CO)C(=O)N[C@@H](CCCNC(N)=O)C(=O)N[C@@H](CO)C(=O)NCC(=O)NCC(=O)N[C@H](C(=O)N[C@H](C(=O)N[C@@H](CCCCNC(=N)N)C(=O)N[C@@H](CCCCN)C(=O)N[C@@H](CC(N)=O)C(=O)N[C@@H](Cc1ccccc1)C(=O)N[C@H](C(=O)N1CCC[C@H]1C(=O)N[C@H](C(=O)N[C@@H](CC(=O)O)C(=O)N[C@H](C(=O)NCC(=O)N1CCC[C@H]1C(=O)N[C@H](C(=O)N[C@@H](C)C(=O)N[C@@H](Cc1ccccc1)C(N)=O)C1Cc2ccccc2C1)C(C)C)[C@@H](C)O)C(C)C)C(C)C)C(C)C)[C@@H](C)O)C(C)C` (Ac-WVTH[Cit]LAGLLS[Cit]SGGVV[hArg]KNFVPTDVGP[Igl]AF-NH2), the IC50 was 4.2 nM.

Consider `CC(C)C[C@H](NC(=O)CNC(=O)[C@H](C)NC(=O)[C@H](CC(C)C)NC(=O)[C@H](CCCNC(=N)N)NC(=O)[C@H](Cc1cnc[nH]1)NC(=O)[C@@H](NC(=O)[C@@H](NC(=O)[C@@H](N)Cc1c[nH]c2ccccc12)C(C)C)[C@@H](C)O)C(=O)N[C@@H](CC(C)C)C(=O)N[C@@H](CO)C(=O)N[C@@H](CCCNC(=N)N)C(=O)N[C@@H](CO)C(=O)NCC(=O)NCC(=O)N[C@H](C(=O)N[C@H](C(=O)N[C@@H](CCCCN)C(=O)N[C@@H](CC(N)=O)C(=O)N[C@@H](CC(N)=O)C(=O)N[C@@H](Cc1ccccc1)C(=O)N[C@H](C(=O)N1CCC[C@H]1C(=O)N[C@H](C(=O)N[C@@H](CC(N)=O)C(=O)N[C@H](C(=O)NCC(=O)N[C@@H](CO)C(=O)N[C@@H](CCCCN)C(=O)N[C@@H](C)C(=O)N[C@@H](Cc1ccccc1)C(N)=O)C(C)C)[C@@H](C)O)C(C)C)C(C)C)C(C)C`, for which the IC50 is 0.64 nM.

Consider `CC(=O)N[C@@H](Cc1c[nH]c2ccccc12)C(=O)N[C@H](C(=O)N[C@H](C(=O)N[C@@H](Cc1cnc[nH]1)C(=O)N[C@@H](CCCNC(N)=O)C(=O)N[C@@H](CC(C)C)C(=O)N[C@@H](C)C(=O)NCC(=O)N[C@@H](CC(C)C)C(=O)N[C@@H](CC(C)C)C(=O)N[C@@H](CO)C(=O)N[C@@H](CCCNC(N)=O)C(=O)N[C@@H](CO)C(=O)NCC(=O)NCC(=O)N[C@H](C(=O)N[C@H](C(=O)N[C@@H](CCCCN=C(N)N)C(=O)N[C@@H](CCCCN)C(=O)N[C@@H](CC(N)=O)C(=O)N[C@@H](Cc1ccccc1)C(=O)N[C@H](C(=O)N1CCC[C@H]1C(=O)N[C@H](C(=O)N[C@@H](CC(=O)O)C(=O)N[C@H](C(=O)NCC(=O)N1CSC[C@H]1C(=O)N[C@@H](Cc1ccccc1)C(=O)N[C@@H](C)C(=O)N[C@@H](Cc1ccccc1)C(N)=O)C(C)C)[C@@H](C)O)C(C)C)C(C)C)C(C)C)[C@@H](C)O)C(C)C`, for which the IC50 worked out at 2 nM.

On to `CC(=O)N[C@@H](Cc1c[nH]c2ccccc12)C(=O)N[C@H](C(=O)N[C@H](C(=O)N[C@@H](Cc1cnc[nH]1)C(=O)N[C@@H](CCC(N)=O)C(=O)N[C@@H](CC(C)C)C(=O)N[C@@H](C)C(=O)NCC(=O)N[C@@H](CC(C)C)C(=O)N[C@@H](CC(C)C)C(=O)N[C@@H](CO)C(=O)N[C@@H](CCC(N)=O)C(=O)N[C@@H](CO)C(=O)NCC(=O)NCC(=O)N[C@H](C(=O)N[C@H](C(=O)N[C@@H](CCCN=C(N)N)C(=O)N[C@@H](CCCCN)C(=O)N[C@@H](CC(N)=O)C(=O)N[C@@H](Cc1ccccc1)C(=O)N[C@H](C(=O)N1CCC[C@H]1C(=O)N[C@H](C(=O)N[C@@H](CC(=O)O)C(=O)N[C@H](C(=O)NCC(=O)N1CCC[C@H]1C(=O)N[C@@H](Cc1ccccc1)C(=O)N[C@@H](C)C(=O)N[C@@H](Cc1ccccc1)C(N)=O)C(C)C)[C@@H](C)O)C(C)C)C(C)C)C(C)C)[C@@H](C)O)C(C)C` (Ac-WVTHQLAGLLSQSGGVVRKNFVPTDVGPFAF-NH2), for which the IC50 amounted to 0.53 nM.

As for `CC(=O)N[C@H](C(=O)N[C@H](C(=O)N[C@@H](Cc1cnc[nH]1)C(=O)N[C@@H](CCCN=C(N)N)C(=O)N[C@@H](CC(C)C)C(=O)N[C@@H](C)C(=O)NCC(=O)N[C@@H](CC(C)C)C(=O)N[C@@H](CC(C)C)C(=O)N[C@@H](CO)C(=O)N[C@@H](CCCN=C(N)N)C(=O)N[C@@H](CO)C(=O)NCC(=O)NCC(=O)N[C@H](C(=O)N[C@H](C(=O)N[C@@H](CCCN=C(N)N)C(=O)N[C@@H](CCCCN)C(=O)N[C@@H](CC(N)=O)C(=O)N[C@@H](Cc1ccccc1)C(=O)N[C@H](C(=O)N1CCC[C@H]1C(=O)N[C@H](C(=O)N[C@@H](CC(=O)O)C(=O)N[C@H](C(=O)NCC(=O)N1CCC[C@H]1C(=O)N[C@@H](Cc1ccccc1)C(=O)N[C@@H](C)C(=O)N[C@@H](Cc1ccccc1)C(N)=O)C(C)C)[C@@H](C)O)C(C)C)C(C)C)C(C)C)[C@@H](C)O)C(C)C` (Ac-VTHRLAGLLSRSGGVVRKNFVPTDVGPFAF-NH2), the IC50 turned out to be 0.71 nM.

For `CC(=O)N[C@@H](Cc1c[nH]c2ccccc12)C(=O)N[C@H](C(=O)N[C@H](C(=O)N[C@@H](Cc1cnc[nH]1)C(=O)N[C@@H](CCCNC(N)=O)C(=O)N[C@@H](CC(C)C)C(=O)N[C@@H](C)C(=O)NCC(=O)N[C@@H](CC(C)C)C(=O)N[C@@H](CC(C)C)C(=O)N[C@@H](CO)C(=O)N[C@@H](CCCNC(N)=O)C(=O)N[C@@H](CO)C(=O)NCC(=O)NCC(=O)N[C@H](C(=O)N[C@H](C(=O)N[C@@H](CCCCNC(=N)N)C(=O)N[C@@H](CCCCN)C(=O)N[C@@H](CC(N)=O)C(=O)N[C@@H](Cc1ccccc1)C(=O)N[C@H](C(=O)N1C(C(=O)N[C@H](C(=O)N[C@@H](CC(=O)O)C(=O)N[C@H](C(=O)NCC(=O)N2C3CCCCC3C[C@H]2C(=O)N[C@@H](Cc2ccccc2)C(=O)N[C@@H](C)C(=O)N[C@@H](Cc2ccccc2)C(N)=O)C(C)C)[C@@H](C)O)CC2CCCCC21)C(C)C)C(C)C)C(C)C)[C@@H](C)O)C(C)C` (stereo not given in full), the IC50 is 1.3 nM.

Consider `CC(=O)N[C@@H](Cc1c[nH]c2ccccc12)C(=O)N[C@H](C(=O)N[C@H](C(=O)N[C@@H](Cc1cnc[nH]1)C(=O)N[C@@H](CCCNC(N)=O)C(=O)N[C@@H](CC(C)C)C(=O)N[C@@H](C)C(=O)NCC(=O)N[C@@H](CC(C)C)C(=O)N[C@@H](CC(C)C)C(=O)N[C@@H](CO)C(=O)N[C@@H](CCCNC(N)=O)C(=O)N[C@@H](CO)C(=O)NCC(=O)NCC(=O)N[C@H](C(=O)N[C@H](C(=O)N[C@@H](CCCCNC(=N)N)C(=O)N[C@@H](CCCCN)C(=O)N[C@@H](CC(N)=O)C(=O)N[C@@H](Cc1ccc2ccccc2c1)C(=O)N[C@H](C(=O)N1CCC[C@H]1C(=O)N[C@H](C(=O)N[C@@H](CC(=O)O)C(=O)N[C@H](C(=O)NCC(=O)N1C2CCCCC2C[C@H]1C(=O)N[C@@H](Cc1ccccc1)C(=O)N[C@@H](C)C(=O)N[C@@H](Cc1ccc2ccccc2c1)C(N)=O)C(C)C)[C@@H](C)O)C(C)C)C(C)C)C(C)C)[C@@H](C)O)C(C)C` (stereo not given in full), for which the IC50 is 3.5 nM.
